Assay results from patent EP2998294A1, “Naphthyl sulfonamide phenyl derivatives as KEAP-1 modulators for the treatment of diabetes, obesity, dyslipidemia and related disorders” (SANOFI, priority 2014, dated 2016).
pIC50: −log10 of the molar value.

Biological target: T1, human Keap1 kelch domain (amino acids Ala321-Thr609) (Homo sapiens, UniProt Q14145)
T1 construct: human Keap1 kelch domain (amino acids Ala321-Thr609)
Test: Keap1-Nrf2 peptide binding assay (fluorescence polarisation)
Details: binding of Keap1 kelch domain (20 nM) to fluorescently labeled Nrf2 peptide (50 nM)
Method: A fluorescence polarisation assay was used to measure binding of the human Keap1 kelch domain (amino acids Ala321-Thr609) to a fluorescently labeled peptide containing a Keap1 binding site of human Nrf2 (Alexa633-AFFAQLQLDEETGEFL; JPT Technologies, Berlin, Germany). Two microliters of test compound in reaction buffer (phosphate-buffered saline, 2 mM DL-dithiothreitol, 0.015 % (v/v) Brij-35) containing 6 % (v/v) DMSO were mixed with two microliters of the Keap1 kelch domain in reaction buffer in a black 384-well small volume microtiter plate and incubated at ambient temperature for 15 minutes. Thereafter, two microliters were added of the fluorescently labeled Nrf2 peptide in reaction buffer, and the mixture was incubated for a further 30 minutes at ambient temperature. Final concentrations of the Keap1 kelch domain and the fluorescently labeled Nrf2 peptide were 20 nM and 50 nM, respectively.
Fluorescence polarization (FP) was measured at excitation and emission wavelengths of 635 nm and 660 nm, respectively. Positive controls for binding (two microliters of reaction buffer containing 6 % (v/v) DMSO instead of test compound in the same buffer) and negative controls (as positive controls, but without Keap1 kelch domain) were included on each microtiter plate. Data were expressed as percent-inhibition values: percentinhibition = 100⋅(1-(|FPcompound-FPnegative controle|)/(|FPpositive controle-FPnegative controle|)) [formula]
IC50 values were determined by testing different compound concentrations and fitting the resulting percent-inhibition values to the following equation using XLFit4: percentinhibition = A + (B-A)/(1 + (((IC50)/([Compound])))^D) [formula]
Parameter A was set to zero, pre-fit values for parameters B and D were set to 100 and 1, respectively.

T1 sequence (Q14145 321-609): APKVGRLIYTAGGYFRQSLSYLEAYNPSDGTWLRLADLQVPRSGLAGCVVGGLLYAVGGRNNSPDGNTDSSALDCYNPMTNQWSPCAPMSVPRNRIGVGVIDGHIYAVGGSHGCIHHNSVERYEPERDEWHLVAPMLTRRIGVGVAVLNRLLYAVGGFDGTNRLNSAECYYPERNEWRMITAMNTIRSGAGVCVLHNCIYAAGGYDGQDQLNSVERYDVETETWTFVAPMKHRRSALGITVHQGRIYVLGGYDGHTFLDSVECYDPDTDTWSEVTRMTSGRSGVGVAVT

SMILES | pIC50
O=C(O)c1ccc(F)c(-c2ccc(NS(=O)(=O)c3cccc(Cl)c3Cl)c3ccccc23)c1 [Example 74, 3-[4-[(2,3-dichlorophenyl)sulfonylamino]-1-naphthyl]-4-fluoro-benzoic acid] | 6.05
O=C(O)c1ccc(F)c(-c2ccc(NS(=O)(=O)c3c(Cl)cc(C(F)(F)F)cc3Cl)c3ccccc23)c1 [Example 81, 3-[4-[[2,6-dichloro-4-(trifluoromethyl)phenyl]sulfonylamino]-1-naphthyl]-4-fluoro-benzoic acid] | 6.15
Cc1ccc(Cl)cc1S(=O)(=O)Nc1ccc(-c2cc(C(=O)O)ccc2F)c2ccccc12 [Example 87, 3-[4-[(5-chloro-2-methylphenyl)sulfonylamino]-1-naphthyl]-4-fluorobenzoic acid] | 6.00
O=C(O)c1ccc(F)c(-c2ccc(NS(=O)(=O)c3cc(F)cc(F)c3Cl)c3ccccc23)c1 [Example 92, 3-[4-[(2-chloro-3,5-difluorophenyl)sulfonylamino]-1-naphthyl]-4-fluorobenzoic acid] | 5.28

Same assay, conditions: binding of Keap1 kelch domain (20 nM) to fluorescently labeled Nrf2 peptide (50 nM); read-out: IC50

SMILES | pIC50
Cc1c(S(=O)(=O)Nc2ccc(-c3cccc(C(=O)O)c3)c3ccccc23)cnn1CC(C)C [Example 68, 3-[4-[(1-isobutyl-5-methyl-pyrazol-4-yl)sulfonylamino]-1-naphthyl]benzoic acid] | 5.62
CCCCn1cc(S(=O)(=O)Nc2ccc(-c3cc(C(=O)O)ccc3F)c3ccccc23)c(C)n1 [Example 70, 3-[4-[(1-butyl-3-methyl-pyrazol-4-yl)sulfonylamino]-1-naphthyl]-4-fluorobenzoic acid] | 5.59
CCCCn1cc(S(=O)(=O)Nc2ccc(-c3cccc(C(=O)O)c3)c3nc(C)ccc23)c(C)n1 [Example 71, 3-[5-[(1-butyl-3-methyl-pyrazol-4-yl)sulfonylamino]-2-methyl-8-quinolyl]benzoic acid] | 4.66
CCCn1ncc(S(=O)(=O)Nc2ccc(-c3cc(C(=O)O)ccc3F)c3ccccc23)c1C [Example 72, 4-fluoro-3-[4-[(5-methyl-1-propyl-pyrazol-4-yl)sulfonylamino]-1-naphthyl]benzoic acid] | 5.85
Cc1ccc(S(=O)(=O)Nc2ccc(-c3cccc(C(=O)O)c3)c3ccccc23)c(Cl)n1 [Example 73, 3-[4-[(2-chloro-6-methyl-3-pyridyl)sulfonylamino]-1-naphthyl]benzoic acid] | 5.11
O=C(O)c1ccc(F)c(-c2ccc(NS(=O)(=O)c3ccc(Cl)c(C(F)(F)F)c3)c3ccccc23)c1 [Example 75, 3-[4-[[4-chloro-3-(trifluoromethyl)phenyl]sulfonylamino]-1-naphthyl]-4-fluoro-benzoic acid] | 5.36
O=C(O)c1ccc(F)c(-c2ccc(NS(=O)(=O)c3cc(Cl)ccc3Cl)c3ccccc23)c1 [Example 76, 3-[4-[(2,5-dichlorophenyl)sulfonylamino]-1-naphthyl]-4-fluoro-benzoic acid] | 5.62
Cc1c(S(=O)(=O)Nc2ccc(-c3cc(C(=O)O)ccc3F)c3ccccc23)cnn1-c1ccccc1 [Example 77, 4-fluoro-3-[4-[(5-methyl-1-phenyl-pyrazol-4-yl)sulfonylamino]-1-naphthyl]benzoic acid] | 5.43
Cn1cc(S(=O)(=O)Nc2ccc(-c3cc(C(=O)O)ccc3F)c3ccccc23)c(C(F)(F)F)n1 [Example 78, 4-fluoro-3-[4-[[1-methyl-3-(trifluoromethyl)pyrazol-4-yl]sulfonylamino]-1-naphthyl]benzoic acid] | 5.01
Cc1nn(C)c(C)c1S(=O)(=O)Nc1ccc(-c2cc(C(=O)O)ccc2F)c2ccccc12 [Example 79, 4-fluoro-3-[4-[(1,3,5-trimethylpyrazol-4-yl)sulfonylamino]-1-naphthyl]benzoic acid] | 6.40
Cc1nc(C)c(S(=O)(=O)Nc2ccc(-c3cc(C(=O)O)ccc3F)c3ccccc23)s1 [Example 80, 3-[4-[(2,4-dimethylthiazol-5-yl)sulfonylamino]-1-naphthyl]-4-fluorobenzoic acid] | 5.72
O=C(O)c1ccc(F)c(-c2ccc(NS(=O)(=O)c3cc(F)c(F)cc3Cl)c3ccccc23)c1 [Example 82, 3-[4-[(2-chloro-4,5-difluorophenyl)sulfonylamino]-1-naphthyl]-4-fluorobenzoic acid] | 5.29
COc1ccc(S(=O)(=O)Nc2ccc(-c3cc(C(=O)O)ccc3F)c3ccccc23)c(OC)c1 [Example 83, 3-[4-[(2,4-dimethoxyphenyl)sulfonylamino]-1-naphthyl]-4-fluoro-benzoic acid] | 5.66
Cc1c(S(=O)(=O)Nc2ccc(-c3cc(C(=O)O)ccc3F)c3ccccc23)cnn1CC(C)C [Example 84, 4-fluoro-3-[4-[(1-isobutyl-5-methyl-pyrazol-4-yl)sulfonylamino]-1-naphthyl]benzoic acid] | 5.77
O=C(O)c1ccc(F)c(-c2ccc(NS(=O)(=O)c3cc(Cl)sc3Cl)c3ccccc23)c1 [Example 85, 3-[4-[(2,5-dichloro-3-thienyl)sulfonylamino]-1-naphthyl]-4-fluoro-benzoic acid] | 6.05
Cc1nn(-c2ccccc2)c(C)c1S(=O)(=O)Nc1ccc(-c2cc(C(=O)O)ccc2F)c2ccccc12 [Example 86, 3-[4-[(3,5-dimethyl-1-phenyl-pyrazol-4-yl)sulfonylamino]-1-naphthyl]-4-fluorobenzoic acid] | 5.82
Cc1cc(S(=O)(=O)Nc2ccc(-c3cc(C(=O)O)ccc3F)c3ccccc23)c(Cl)cc1Cl [Example 88, 3-[4-[(2,4-dichloro-5-methylphenyl)sulfonylamino]-1-naphthyl]-4-fluorobenzoic acid] | 5.89
COc1cc(C)ccc1S(=O)(=O)Nc1ccc(-c2cc(C(=O)O)ccc2F)c2ccccc12 [Example 89, 4-fluoro-3-[4-[(2-methoxy-4-methylphenyl)sulfonylamino]-1-naphthyl]benzoic acid] | 5.60
Cc1c(S(=O)(=O)Nc2ccc(-c3cc(C(=O)O)ccc3F)c3ccccc23)cnn1C1CCCC1 [Example 90, 3-[4-[(1-cyclopentyl-5-methyl-pyrazol-4-yl)sulfonylamino]-1-naphthyl]-4-fluorobenzoic acid] | 5.92
COc1ccc(F)c(S(=O)(=O)Nc2ccc(-c3cc(C(=O)O)ccc3F)c3ccccc23)c1 [Example 91, 4-fluoro-3-[4-[(2-fluoro-5-methoxyphenyl)sulfonylamino]-1-naphthyl]benzoic acid] | 5.66
Cc1c(S(=O)(=O)Nc2ccc(-c3cc(C(=O)O)ccc3F)c3ncccc23)sc2ccc(Cl)cc12 [Example 93, 3-[5-[(5-chloro-3-methyl-benzothiophen-2-yl)sulfonylamino]-8-quinolyl]-4-fluoro-benzoic acid] | 5.19
Cc1c(S(=O)(=O)Nc2ccc(-c3cc(C(=O)O)ccc3F)c3ncccc23)sc2cccc(F)c12 [Example 94, 4-fluoro-3-[5-[(4-fluoro-3-methyl-benzothiophen-2-yl)sulfonylamino]-8-quinolyl]benzoic acid] | 5.52
CCCCCCCCn1nc(C)c(S(=O)(=O)Nc2ccc(-c3cc(C(=O)O)ccc3F)c3ncccc23)c1C [Example 95, 3-[5-[(3,5-dimethyl-1-octyl-pyrazol-4-yl)sulfonylamino]-8-quinolyl]-4-fluorobenzoic acid] | 5.66
Cc1c(S(=O)(=O)Nc2ccc(-c3cc(C(=O)O)ccc3F)c3ncccc23)c2ccccc2n1C [Example 96, 3-[5-[(1,2-dimethylindol-3-yl)sulfonylamino]-8-quinolyl]-4-fluoro-benzoic acid] | 6.05
Cn1ccc2c(S(=O)(=O)Nc3ccc(-c4cc(C(=O)O)ccc4F)c4ncccc34)cccc21 [Example 97, 4-fluoro-3-[5-[(1-methylindol-4-yl)sulfonylamino]-8-quinolyl]benzoic acid] | 5.26
